Experimental findings from ChEMBL document CHEMBL1133326, “Alpha-ketoamides, alpha-ketoesters and alpha-diketones as HCV NS3 protease inhibitors” (Bioorg Med Chem Lett, 2000) are described below.

What is called IC50 is the concentration at which inhibition is half-maximal.

*1 amine or outer side, *2 acyl side, *3 side chain or, on linkers, in order; H or OH if unused. Where a SMILES comes first, the peptide text is derived from it. [ ]: non-standard residue; d: D form. The star is where a group is joined. Abu(ψCOCO) = CC[C@H](N[*:1])C(=O)C(=O)[*:2]; Boc = CC(C)(C)OC(=O)*; OtBu = CC(C)(C)O*; NHAllyl = C=CCN*

This test has as its target NS3 (Hepatitis C virus, UniProt A3EZJ3). The test is described as follows: Inhibition against hepatitis C virus protease NS3 activity. Details: species or system Hepacivirus hominis.

Chain of NS3 (A3EZJ3 whole entry): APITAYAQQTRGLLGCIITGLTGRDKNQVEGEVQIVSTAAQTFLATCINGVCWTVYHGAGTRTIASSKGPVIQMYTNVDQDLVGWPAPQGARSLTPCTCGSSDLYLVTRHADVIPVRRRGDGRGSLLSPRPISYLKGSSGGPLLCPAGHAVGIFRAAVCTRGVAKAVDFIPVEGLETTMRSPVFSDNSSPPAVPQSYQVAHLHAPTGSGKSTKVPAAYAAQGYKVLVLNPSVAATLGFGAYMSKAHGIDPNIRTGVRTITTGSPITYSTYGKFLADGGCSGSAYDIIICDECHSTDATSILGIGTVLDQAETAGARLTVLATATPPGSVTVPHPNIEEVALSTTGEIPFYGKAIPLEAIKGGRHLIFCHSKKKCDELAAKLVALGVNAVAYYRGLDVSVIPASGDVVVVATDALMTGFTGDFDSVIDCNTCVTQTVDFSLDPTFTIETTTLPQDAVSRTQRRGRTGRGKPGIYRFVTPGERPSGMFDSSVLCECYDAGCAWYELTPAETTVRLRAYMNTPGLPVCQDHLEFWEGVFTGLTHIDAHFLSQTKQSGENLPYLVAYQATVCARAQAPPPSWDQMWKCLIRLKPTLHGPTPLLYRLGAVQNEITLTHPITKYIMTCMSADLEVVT

As for `C=CCC(NC(=O)[C@H]1CCCN1C(=O)[C@@H](NC(=O)[C@@H](NC(=O)[C@H](CCC(=O)O)NC(=O)[C@@H](N)CC(=O)O)C(C)C)C(C)C)C(=O)C(=O)CC(C)C` (stereo partly specified), it took 4800 nM to reach half-maximal inhibition (IC50).

Take `C=CCNC(=O)C(=O)[C@H](CC)NC(=O)[C@@H]1CCCN1C(=O)[C@@H](NC(=O)[C@@H](NC(=O)[C@H](CCC(=O)O)NC(=O)[C@@H](N)CC(=O)O)C(C)C)C(C)C` (H-DEVVP[Abu(ψCOCO)]-NHAllyl): the IC50 is 420 nM.

`C=CCNC(=O)C(=O)[C@H](CC)NC(=O)[C@@H]1CCCN1C(=O)[C@@H](NC(=O)[C@@H](NC(=O)[C@H](CCC(=O)OC(C)(C)C)NC(=O)[C@H](CC(=O)OC(C)(C)C)NC(=O)OC(C)(C)C)C(C)C)C(C)C` (Boc-D(OtBu)E(OtBu)VVP[Abu(ψCOCO)]-NHAllyl) had an IC50 of 840 nM.

Molecule `C=CCNC(=O)C(=O)C(CC=C)NC(=O)[C@H]1CCCN1C(=O)[C@@H](NC(=O)[C@@H](NC(=O)[C@H](CCC(=O)OC(C)(C)C)NC(=O)[C@H](CC(=O)OC(C)(C)C)NC(=O)OC(C)(C)C)C(C)C)C(C)C` (stereo partly specified) had an IC50 of 570 nM.

Turning to `C=CCNC(=O)C(=O)C(CC=C)NC(=O)[C@H]1CCCN1C(=O)[C@@H](NC(=O)[C@@H](NC(=O)[C@H](CCC(=O)O)NC(=O)[C@@H](N)CC(=O)O)C(C)C)C(C)C` (stereo partly specified), the IC50 was determined as 340 nM.

The molecule `C=CCC(NC(=O)[C@H]1CCCN1C(=O)[C@@H](NC(=O)[C@@H](NC(=O)[C@H](CCC(=O)O)NC(=O)[C@@H](N)CC(=O)O)C(C)C)C(C)C)C(=O)C(=O)NCC` (stereo partly specified) returned an IC50 of 350 nM.

Consider `C=CCC(NC(=O)[C@H]1CCCN1C(=O)[C@@H](NC(=O)[C@@H](NC(=O)[C@H](CCC(=O)O)NC(=O)[C@@H](N)CC(=O)O)C(C)C)C(C)C)C(=O)C(=O)OC` (stereo partly specified), for which the IC50 was 4340 nM.

Molecule `C=CCC(NC(=O)[C@H]1CCCN1C(=O)[C@@H](NC(=O)[C@@H](NC(=O)[C@H](CCC(=O)OC(C)(C)C)NC(=O)[C@H](CC(=O)OC(C)(C)C)NC(=O)OC(C)(C)C)C(C)C)C(C)C)C(=O)C(=O)CC(C)C` (stereo partly specified) returned an IC50 of more than 30000 nM.

Ac-DEVVPC-OH returned an IC50 of 2500 nM.

With `C=CCC(NC(=O)[C@H]1CCCN1C(=O)[C@@H](NC(=O)[C@@H](NC(=O)[C@H](CCC(=O)OC(C)(C)C)NC(=O)[C@H](CC(=O)OC(C)(C)C)NC(=O)OC(C)(C)C)C(C)C)C(C)C)C(=O)C(=O)OC` (stereo partly specified), the concentration for half-maximal inhibition (IC50) is more than 30000 nM.

Consider `C=CCC(NC(=O)[C@H]1CCCN1C(=O)[C@@H](NC(=O)[C@@H](NC(=O)[C@H](CCC(=O)O)NC(=O)[C@@H](N)CC(=O)O)C(C)C)C(C)C)C(=O)C(=O)C1CC=CCC1` (stereo partly specified), for which it took 4230 nM to reach half-maximal inhibition (IC50).
